Assay results: ChEMBL document CHEMBL5380830, “Development and Therapeutic Implications of Tyrosine Kinase 2 Inhibitors” (J Med Chem, 2023)
Blank lines part the entries; values can stand above or below the molecule they belong to.

What was measured:
[1] = molecular target: T1, Non-receptor tyrosine-protein kinase TYK2 (Homo sapiens, UniProt P29597); assay: Inhibition of TYK2 in HEK-Blue IL-23 cells assessed as reduction in SEAP reporter gene expression by Quanti-blue assay; type: cell-based
[2] = molecular target: T1, Non-receptor tyrosine-protein kinase TYK2; assay: Binding affinity to human wild-type partial length TYK2 JH2 (G556 to D888 residues) expressed in mammalian expression system by KINOMEscan assay
[3] = molecular target: T1, Non-receptor tyrosine-protein kinase TYK2; assay: Inhibition of TYK2 JH2 in human KIT225 cells assessed as reduction of IFNalpha induced STAT1 phosphorylation by AlphaLISA assay; type: cell-based
[4] = molecular target: T1, Non-receptor tyrosine-protein kinase TYK2; assay: Inhibition of human recombinant TYK2 preincubated for 15 mins followed by substrate addition measured after 60 mins by HTRF assay
[5] = molecular target: T2, Tyrosine-protein kinase JAK3 (Homo sapiens, UniProt P52333); assay: Inhibition of human recombinant JAK3 preincubated for 15 mins followed by substrate addition measured after 60 mins by HTRF assay
T2 sequence (P52333 whole entry): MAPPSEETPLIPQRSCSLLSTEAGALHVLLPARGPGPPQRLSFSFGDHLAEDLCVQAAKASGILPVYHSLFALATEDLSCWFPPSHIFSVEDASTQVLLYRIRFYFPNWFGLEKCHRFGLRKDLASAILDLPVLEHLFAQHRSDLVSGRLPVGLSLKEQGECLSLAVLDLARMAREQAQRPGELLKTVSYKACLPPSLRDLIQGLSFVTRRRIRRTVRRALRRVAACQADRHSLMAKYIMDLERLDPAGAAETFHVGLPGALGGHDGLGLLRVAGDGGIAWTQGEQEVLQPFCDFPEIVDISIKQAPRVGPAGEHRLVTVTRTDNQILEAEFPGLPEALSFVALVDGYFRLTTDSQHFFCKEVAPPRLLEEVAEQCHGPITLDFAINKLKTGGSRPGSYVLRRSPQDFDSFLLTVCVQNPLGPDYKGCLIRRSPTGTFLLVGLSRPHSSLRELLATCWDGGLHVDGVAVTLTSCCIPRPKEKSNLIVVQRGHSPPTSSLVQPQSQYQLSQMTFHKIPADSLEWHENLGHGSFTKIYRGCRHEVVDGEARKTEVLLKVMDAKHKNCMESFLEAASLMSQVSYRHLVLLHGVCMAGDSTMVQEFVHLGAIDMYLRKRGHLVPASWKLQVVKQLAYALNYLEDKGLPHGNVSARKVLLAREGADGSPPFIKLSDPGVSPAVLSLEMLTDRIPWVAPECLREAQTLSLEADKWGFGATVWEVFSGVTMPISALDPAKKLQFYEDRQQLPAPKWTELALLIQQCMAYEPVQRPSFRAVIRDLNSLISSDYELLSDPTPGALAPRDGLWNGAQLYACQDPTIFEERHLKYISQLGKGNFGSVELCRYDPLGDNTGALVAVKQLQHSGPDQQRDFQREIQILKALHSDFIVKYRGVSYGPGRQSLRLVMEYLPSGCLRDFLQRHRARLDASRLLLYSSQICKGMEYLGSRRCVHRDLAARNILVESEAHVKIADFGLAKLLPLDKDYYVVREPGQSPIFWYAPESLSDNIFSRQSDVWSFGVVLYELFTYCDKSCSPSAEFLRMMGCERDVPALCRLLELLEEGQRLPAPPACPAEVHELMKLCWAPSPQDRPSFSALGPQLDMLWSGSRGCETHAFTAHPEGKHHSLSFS

[6] = molecular target: T3, Tyrosine-protein kinase JAK2 (Homo sapiens, UniProt O60674); assay: Inhibition of human recombinant JAK2 preincubated for 15 mins followed by substrate addition measured after 60 mins by HTRF assay
T3 sequence (O60674 whole entry): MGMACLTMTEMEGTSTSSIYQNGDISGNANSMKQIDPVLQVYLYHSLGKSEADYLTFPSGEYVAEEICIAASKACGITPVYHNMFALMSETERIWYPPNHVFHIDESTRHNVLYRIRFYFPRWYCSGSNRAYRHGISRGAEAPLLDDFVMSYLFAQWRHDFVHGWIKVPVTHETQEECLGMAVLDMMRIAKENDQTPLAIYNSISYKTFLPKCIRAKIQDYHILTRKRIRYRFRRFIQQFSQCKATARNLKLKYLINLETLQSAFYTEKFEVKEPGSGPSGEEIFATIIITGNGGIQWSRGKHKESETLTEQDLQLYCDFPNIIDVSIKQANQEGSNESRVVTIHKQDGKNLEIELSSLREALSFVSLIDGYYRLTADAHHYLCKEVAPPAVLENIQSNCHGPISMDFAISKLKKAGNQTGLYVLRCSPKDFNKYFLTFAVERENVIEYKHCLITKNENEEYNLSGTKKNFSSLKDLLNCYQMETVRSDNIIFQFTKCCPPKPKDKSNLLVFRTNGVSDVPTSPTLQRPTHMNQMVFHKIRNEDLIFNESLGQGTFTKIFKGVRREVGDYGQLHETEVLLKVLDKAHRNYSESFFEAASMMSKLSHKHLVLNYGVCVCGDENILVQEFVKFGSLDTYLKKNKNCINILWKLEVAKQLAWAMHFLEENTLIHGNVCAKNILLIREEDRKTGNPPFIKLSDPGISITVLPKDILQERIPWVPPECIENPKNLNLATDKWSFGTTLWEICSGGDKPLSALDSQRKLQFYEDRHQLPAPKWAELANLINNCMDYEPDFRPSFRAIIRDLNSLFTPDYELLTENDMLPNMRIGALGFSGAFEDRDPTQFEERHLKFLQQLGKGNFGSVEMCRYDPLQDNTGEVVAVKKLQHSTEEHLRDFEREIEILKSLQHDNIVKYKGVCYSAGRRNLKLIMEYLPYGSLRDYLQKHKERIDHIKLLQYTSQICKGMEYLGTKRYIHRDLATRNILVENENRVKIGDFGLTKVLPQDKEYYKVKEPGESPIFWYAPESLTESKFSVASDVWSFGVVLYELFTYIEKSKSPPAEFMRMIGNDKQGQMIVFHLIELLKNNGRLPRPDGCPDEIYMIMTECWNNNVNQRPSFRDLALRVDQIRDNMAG

[7] = molecular target: JAK2/TYK2 (Homo sapiens, UniProt O60674+P29597); assay: Inhibition of JAK2/TYK2 signal transduction pathway in human NK92 cells assessed as […] induced IFNgamma expression incubated for 24 hrs by ELISA assay; type: cell-based
Sequence of JAK2/TYK2 (O60674 whole entry): as above
Sequence of JAK2/TYK2 (P29597 whole entry): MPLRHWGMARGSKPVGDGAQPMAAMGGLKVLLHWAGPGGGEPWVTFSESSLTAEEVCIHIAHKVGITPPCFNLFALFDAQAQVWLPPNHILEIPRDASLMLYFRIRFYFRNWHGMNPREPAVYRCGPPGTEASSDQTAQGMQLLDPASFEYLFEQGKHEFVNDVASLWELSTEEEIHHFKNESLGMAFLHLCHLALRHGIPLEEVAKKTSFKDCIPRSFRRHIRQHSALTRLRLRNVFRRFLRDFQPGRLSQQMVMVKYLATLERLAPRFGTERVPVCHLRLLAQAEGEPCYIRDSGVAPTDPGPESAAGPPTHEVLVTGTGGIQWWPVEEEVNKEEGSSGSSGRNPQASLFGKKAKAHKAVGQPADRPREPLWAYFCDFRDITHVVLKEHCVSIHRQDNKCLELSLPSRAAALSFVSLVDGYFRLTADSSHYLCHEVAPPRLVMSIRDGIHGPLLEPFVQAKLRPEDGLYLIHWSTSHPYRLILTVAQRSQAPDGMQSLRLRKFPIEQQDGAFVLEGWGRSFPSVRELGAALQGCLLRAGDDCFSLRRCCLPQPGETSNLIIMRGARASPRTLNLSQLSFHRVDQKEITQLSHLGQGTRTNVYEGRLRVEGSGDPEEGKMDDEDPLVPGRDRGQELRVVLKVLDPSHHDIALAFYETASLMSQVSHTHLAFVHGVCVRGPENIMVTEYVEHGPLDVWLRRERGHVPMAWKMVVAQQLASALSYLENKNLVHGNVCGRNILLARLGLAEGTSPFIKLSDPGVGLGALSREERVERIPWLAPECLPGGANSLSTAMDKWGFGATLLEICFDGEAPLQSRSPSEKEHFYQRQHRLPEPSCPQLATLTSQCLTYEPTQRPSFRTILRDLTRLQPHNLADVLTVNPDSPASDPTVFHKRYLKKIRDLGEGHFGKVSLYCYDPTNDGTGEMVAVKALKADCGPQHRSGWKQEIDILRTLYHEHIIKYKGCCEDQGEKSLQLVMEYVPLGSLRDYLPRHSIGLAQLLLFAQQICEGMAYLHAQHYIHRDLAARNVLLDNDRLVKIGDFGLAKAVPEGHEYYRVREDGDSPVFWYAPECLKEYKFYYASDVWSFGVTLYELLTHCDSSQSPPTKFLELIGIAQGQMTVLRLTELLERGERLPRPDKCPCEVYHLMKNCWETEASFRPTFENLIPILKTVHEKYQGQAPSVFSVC

[8] = molecular target: T4, Tyrosine-protein kinase JAK1 (Homo sapiens, UniProt P23458); assay: Inhibition of human recombinant JAK1 preincubated for 15 mins followed by substrate addition measured after 60 mins by HTRF assay
T4 sequence (P23458 whole entry): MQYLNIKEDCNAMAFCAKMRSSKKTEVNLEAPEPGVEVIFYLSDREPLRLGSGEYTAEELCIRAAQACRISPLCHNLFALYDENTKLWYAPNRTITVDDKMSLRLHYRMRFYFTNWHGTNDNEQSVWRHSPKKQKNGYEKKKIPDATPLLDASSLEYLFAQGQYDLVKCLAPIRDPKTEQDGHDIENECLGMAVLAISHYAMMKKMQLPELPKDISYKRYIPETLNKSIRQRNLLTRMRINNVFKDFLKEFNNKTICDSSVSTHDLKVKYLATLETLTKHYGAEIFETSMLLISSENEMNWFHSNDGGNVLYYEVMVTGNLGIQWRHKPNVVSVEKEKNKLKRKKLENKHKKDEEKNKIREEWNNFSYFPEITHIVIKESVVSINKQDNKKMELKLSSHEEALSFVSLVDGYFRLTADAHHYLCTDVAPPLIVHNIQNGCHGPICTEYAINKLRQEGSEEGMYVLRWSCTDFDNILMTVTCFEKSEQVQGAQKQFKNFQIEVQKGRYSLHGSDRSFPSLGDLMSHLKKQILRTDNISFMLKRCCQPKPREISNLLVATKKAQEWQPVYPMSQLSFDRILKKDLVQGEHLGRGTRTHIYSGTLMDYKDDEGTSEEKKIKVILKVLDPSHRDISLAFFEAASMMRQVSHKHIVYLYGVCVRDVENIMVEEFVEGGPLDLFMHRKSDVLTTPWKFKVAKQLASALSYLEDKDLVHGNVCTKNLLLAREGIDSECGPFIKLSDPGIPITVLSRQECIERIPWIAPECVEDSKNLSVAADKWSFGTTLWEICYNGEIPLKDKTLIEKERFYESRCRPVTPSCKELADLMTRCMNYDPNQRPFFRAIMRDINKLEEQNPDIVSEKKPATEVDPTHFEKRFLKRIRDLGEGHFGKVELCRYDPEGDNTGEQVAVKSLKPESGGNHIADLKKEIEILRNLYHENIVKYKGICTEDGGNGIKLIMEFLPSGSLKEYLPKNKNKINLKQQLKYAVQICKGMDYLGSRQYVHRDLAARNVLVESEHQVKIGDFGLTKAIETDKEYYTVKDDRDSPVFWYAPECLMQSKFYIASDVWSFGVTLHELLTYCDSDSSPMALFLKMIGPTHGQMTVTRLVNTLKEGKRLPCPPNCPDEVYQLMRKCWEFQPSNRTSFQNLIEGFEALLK

[9] = molecular target: T1, Non-receptor tyrosine-protein kinase TYK2; assay: Inhibition of TYK2 JH2 (unknown origin) by scintillation proximity assay
[10] = molecular target: T1, Non-receptor tyrosine-protein kinase TYK2; assay: Inhibition of TYK2 JH2 in human TF-1 cells assessed as reduction of IFNalpha induced STAT1 phosphorylation; type: cell-based
[11] = molecular target: T1, Non-receptor tyrosine-protein kinase TYK2; assay: Inhibition of TYK2 signal transduction pathway in human PBMC cells assessed as reduction in GM-CSF induced p-STAT5 level; type: cell-based
[12] = molecular target: T1, Non-receptor tyrosine-protein kinase TYK2; assay: Binding affinity to TYK2 JH2 (unknown origin)
[13] = molecular target: T4, Tyrosine-protein kinase JAK1; assay: Binding affinity to JAK1 JH2 (unknown origin)
[14] = molecular target: T1, Non-receptor tyrosine-protein kinase TYK2; assay: Inhibition of TYK2 signal transduction pathway in human PBMC cells assessed as IL-2 induced p-STAT5 level; type: cell-based
[15] = molecular target: T1, Non-receptor tyrosine-protein kinase TYK2; assay: Inhibition of TYK2 signal transduction pathway in human PBMC cells assessed as IFNalpha induced p-STAT5 level; type: cell-based
[16] = molecular target: T3, Tyrosine-protein kinase JAK2; assay: Binding affinity to JAK2 JH1 (unknown origin)
[17] = Inhibition of IL-23 induced STAT phosphorylation in HEK293 cells by Western blotting analysis; type: cell-based; details: Homo sapiens
[18] = Inhibition of IFNalpha induced STAT phosphorylation in HEK293 cells by Western blotting analysis; type: cell-based; details: Homo sapiens
[19] = Inhibition of IFNalpha induced STAT phosphorylation in human whole blood by fluorescence based analysis; type: tissue-based
[20] = molecular target: T2, Tyrosine-protein kinase JAK3; assay: Inhibition of JAK3 (unknown origin) using ULight - JAK (Tyr1023) substrate incubated for 60 mins in presence of ATP by envision plate reader based analysis

T1 sequence (P29597 whole entry, the tested form may be a part): as the sequence (P29597 whole entry) above

IC50 [1]: < 1 nM
Structure (SMILES): [2H]C([2H])([2H])NC(=O)c1nnc(NC(=O)C2CC2)cc1Nc1ncc(C2CC2)cc1S(C)(=O)=O

Kd [2]: 0.028 nM
IC50 [3]: 54 nM
Structure (SMILES): CNC(=O)c1nnc(NC(=O)N2CCC2)cc1Nc1cccc(-c2ncn(C)n2)c1OC

Kd [2]: 0.008 nM
Structure (SMILES): [2H]C([2H])([2H])NC(=O)c1nnc(NC(=O)C2CC2)cc1Nc1cccc(-c2noc(CN3CCN(S(C)(=N)=O)CC3)n2)c1OC (stereo unspecified)

Kd [2]: 0.005 nM
IC50 [3]: 83 nM
Structure (SMILES): [2H]C([2H])([2H])NC(=O)c1nnc(Nc2ccc(N3CC(O)C3)cn2)cc1Nc1cccc(-c2ncn(C)n2)c1OC

IC50 [17]: < 30 nM
IC50 [18]: < 30 nM
Structure (SMILES): [2H]C([2H])([2H])NC(=O)c1nnc(NC(=O)C2CC2)cc1Nc1cccc2c1N(C)Cc1nc(C)nn1-2

IC50 [17]: < 30 nM
IC50 [18]: < 30 nM
Structure (SMILES): [2H]C([2H])([2H])NC(=O)c1nnc(Nc2ccc(F)cn2)cc1Nc1cccc2c1N(C)Cc1n[nH]c(=O)n1-2

IC50 [19]: 30 nM
Structure (SMILES): [2H]C([2H])([2H])NC(=O)c1nnc(NC(=O)C2CC2)cc1Nc1cccc(-c2nc(CN3CCN(S(C)(=O)=O)CC3)no2)c1OC

IC50 [17]: < 30 nM
IC50 [18]: < 30 nM
Structure (SMILES): [2H]C([2H])([2H])NC(=O)c1nnc(NC(=O)C2CC2)cc1Nc1cccc2c1N(C)Cc1cn(C([2H])([2H])[2H])nc1-2

IC50 [17]: < 30 nM
IC50 [18]: < 30 nM
Structure (SMILES): COC(=O)c1nnc(NC(=O)C2CC2)cc1Nc1cccc2c1N(C)Cc1cn(C)nc1-2

The remaining lines, values behind:

Structure (SMILES): NC(=O)c1nnc(-c2c(F)cccc2F)cc1Nc1ccc(N2CCOCC2)cn1
IC50 [4]: < 0.06 nM
IC50 [5]: 1 nM
IC50 [6]: 4 nM
IC50 [7]: 0.08 nM
IC50 [8]: 38 nM

Structure (SMILES): CNc1cc(Nc2cccc3c2OCCC3)nc2c(C(=O)N[C@@H]3CCN(C)C3=O)cnn12
IC50 [9]: < 254 nM
IC50 [10]: 7 nM

Structure (SMILES): NC(=O)c1nnc(-c2c(F)cccc2F)cc1Nc1ccc(N2CCOCC2=O)cn1
IC50 [4]: 0.08 nM
IC50 [5]: 7 nM
IC50 [6]: 5 nM
IC50 [7]: 0.3 nM
IC50 [8]: 81 nM

Structure (SMILES): [2H]C([2H])([2H])CC(=O)c1cnc(NC(=O)C2CC2)cc1Nc1nccc(-c2ncn(C([2H])([2H])[2H])n2)c1OC
IC50 [11]: > 10000 nM
Kd [12]: ≤ 10 nM
Kd [13]: ≤ 100 nM
IC50 [14]: ≤ 1000 nM
IC50 [15]: < 100 nM
Kd [16]: ≤ 1000 nM

Structure (SMILES): CCOc1cccc(Nc2cc(NC)n3ncc(C(=O)N[C@@H]4CCN(C)C4=O)c3n2)n1
IC50 [9]: < 254 nM
IC50 [10]: 38 nM

Structure (SMILES): O=C(Nc1cc2c(cn1)c(=O)[nH]n2-c1ccccc1)C1CC1
IC50 [17]: < 10000 nM
IC50 [18]: < 10000 nM

Structure (SMILES): [2H]C([2H])([2H])NC(=O)c1nnc(Nc2ccc(C(C)(C)O)cn2)cc1Nc1nc(C)ccc1S(C)(=O)=O
IC50 [19]: 6 nM

Structure (SMILES): CNc1cc(Nc2cccn(-c3ccccn3)c2=O)nc2c(C(=O)N[C@@H]3CCN(C)C3=O)cnn12
IC50 [9]: < 254 nM
IC50 [10]: 112 nM

Structure (SMILES): Cn1cc(-c2cn3ncnc3c(-c3ccn([C@]4(CC#N)C[C@H](C#N)C4)c3)n2)cn1
IC50 [20]: > 5000 nM
